Measurements reported in patent US20260209243A1, “A BIOORTHOGONAL CYCLOADDITION REACTION AND USE THEREOF” (NANJING UNIVERSITY, priority 2022, published 2026).

Columns and labels:
[1] = Kinetics studies: DFC reaction of FuA with oD1 in PBS; details: pH 7.4 PBS buffer
Protocol: (§1) DFC reaction in PBS and on proteins. (A) The DFC reaction of oD1 with FuA in pH 7.4 PBS buffer; (B) Time-dependent labelling of 2 mg/mL BSA-FuA with 100 nM oD1-TAMRA for time indicated. Fluorescence signals were acquired using Cy3 channel. Coomassie staining was used to assess BSA loading; (C) Schematic illustration on the single-site modification of the protein oD1 (C156)-SNAP-GFP through the DFC reaction. SNAP-GFP (2 mg/mL) in PBS (pH=7.4) was mixed with 1.5 equivalents of BG-PEG4-oD1 and was incubated at room temperature for 20 min to give oD1 (C156)-SNAP-GFP.
(§2) Measurement of second order rate constants of (A) reactions of o-dione (25 μM) with furan-2(3H)-one (250 μM) in 1×PBS (pH=7.4) and (B) reactions of oD1 (25 μM) with α-AL (250 μM) in different pH buffer. (When pH=5, 6; oD1 is 250 μM and α-AL is 2.5 mM) by plotting ln[1/(1−x)] versus time of o-dione with furan-2(3H)-one reaction (x represents the percent conversion of o-dione).
All kinetics experiments were carried out at room temperature in 1×PBS (pH=7.4). […] Pseudo-first order rate constant kobs was determined by plotting ln[1/(1−x)] versus time and analysis by linear regression. x represents the percent conversion of o-dione. […] The second rate constant k2 was calculated by kobs/[furan-2(3H)-one]. […]

SKOV3 cells = test: MTT assay; assay type: cell-based; details: 0-200 μM, 24 h
Protocol: Relative cell viability of SKOV3 cells after incubation with FuA or PDO6. SKOV3 cells were incubated with 0-200 μM FuA or PDO6 for 24 h. MTT was used to assess the cell viability. Data are shown as mean±SEM (n=3).
SKOV3 cells were seeded in 96-well plates with a concentration of 10,000 cells per well. After 12 h, FuA or PDO6 was added with final concentrations of 0, 40, 80, 120, 160, 200 μM. Then, SKOV3 cells were further cultured for 24 h. MTT assay was then carried out. For each well, 20 μL MTT solution (final concentration, 1 mg/mL) was added and 150 μL DMSO was added after 4 h′ incubation. The absorbance at 490 nm was then measured to indicate the cell viability.

BSA-FuA = molecular target: T1, BSA-FuA (Bos taurus, UniProt P02769); test: In-gel fluorescence assay of DFC reaction on BSA-FuA; assay type: biochemical, bovine; details: incubated in PBS; PDO type cycloadduct confirmed by LC-MS/MS
T1 construct: purchased Sangon Biotech (Shanghai, China)
Protocol: as §1
DFC-based BSA protein labelling and characterization. […]
A solution of BSA (2 mg/mL) in PBS (pH=7.4) was mixed with 200 equivalents of FuA NHS ester and was shaken (900 rpm) at room temperature for 4 h. […] The concentration of BSA-FuA was quantified with BCA protein assay kit (Pierce).
For concentration-dependent reaction, BSA-FuA (2 mg/mL) was incubated with various concentrations of oD1-TAMRA (0-1000 nM) in PBS at room temperature for 30 min. […] Protein samples (20 μg) were further analyzed by gel electrophoresis using 12% polyacrylamide gels and imaged with Bio-Rad Chemdoc imaging system using corresponding filters. Protein loading was assessed by staining with Coomassie Blue according to manufacturer's instructions.

[2] = Kinetics studies: cycloaddition of o-diones with α-AL; details: aqueous solution, pH ranging from 5 to 9
Protocol: The cycloaddition kinetics of α-AL with different o-diones in pH 7.4 PBS buffer or in aqueous solution with indicated pH.
as §2
All kinetics experiments were carried out at room temperature in 1×PBS (pH=7.4). Second order kinetics were performed by combining o-dione and furan-2(3H)-one in a 1:10 ratio, and the concentration of o-dione is 25/250 μM. Pseudo-first order rate constant kobs was determined by plotting ln[1/(1−x)] versus time and analysis by linear regression. x represents the percent conversion of o-dione. The slope of the linear equation is kobs. The second rate constant k2 was calculated by kobs/[furan-2(3H)-one]. The reported errors for rate constants are based on the standard deviation of the mean for experiments performed in triplicate.

live cells = details: stated as known; cited from earlier work

T1 sequence (P02769 25-607): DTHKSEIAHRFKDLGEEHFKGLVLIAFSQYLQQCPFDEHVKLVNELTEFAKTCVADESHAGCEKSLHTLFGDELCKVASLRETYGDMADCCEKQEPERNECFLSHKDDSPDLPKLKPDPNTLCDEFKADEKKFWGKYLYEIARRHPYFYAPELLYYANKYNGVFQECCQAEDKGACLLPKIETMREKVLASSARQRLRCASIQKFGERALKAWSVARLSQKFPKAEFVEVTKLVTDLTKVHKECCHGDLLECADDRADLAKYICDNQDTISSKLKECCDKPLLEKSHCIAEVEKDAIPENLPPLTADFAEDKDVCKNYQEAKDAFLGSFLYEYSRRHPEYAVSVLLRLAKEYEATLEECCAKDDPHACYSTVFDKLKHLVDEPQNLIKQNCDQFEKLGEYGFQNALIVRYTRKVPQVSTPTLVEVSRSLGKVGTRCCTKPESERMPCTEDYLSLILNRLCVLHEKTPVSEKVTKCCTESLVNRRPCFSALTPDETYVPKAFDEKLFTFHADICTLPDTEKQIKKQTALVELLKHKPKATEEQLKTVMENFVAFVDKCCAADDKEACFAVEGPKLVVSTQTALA

O=C(O)CCCC1=CCC(=O)O1 [FuA, 4-(5-oxo-4,5-dihydrofuran-2-yl)butanoic acid]
second-order constant of DFC reaction of oD1 with FuA [1]: about 4 M^−1 s^−1 | cytotoxicity / compatibility with live cells (MTT) (SKOV3 cells): good compatibility with live cells

O=C1C(=O)c2ccccc2-c2ccccc21 [PQ, phenanthrene-9,10-dione]
fluorescence of BSA-FuA after incubation (BSA-FuA): fluorescence turn-on

O=C(O)c1ccc2c(c1)-c1ccccc1C(=O)C2=O [oD1]
pH dependence of reaction kinetics with α-AL [2]: increase of pH under which α-AL is stable enough apparently accelerates the cycloaddition reaction | compatibility with live cells (live cells): compatible with live cells
